# Results as given in patent US12600925B2, “Laundry sanitizing and softening compositions” (Reckitt Benckiser LLC, priority 2023, dated 2026).
# System: Staphylococcus epidermidis
# Assay: Minimum inhibitory concentration, BKC / polymer synergy, 96-well microtiter
# Type: cell-based
# Conditions: second test (lower line of each polymer); 24 h, 37° C.; 100% active
# Description: Take well-defined and typical colonies of Staphylococcus epidermidis from a recent plate of tryptic soy agar (TSA), dissolve and vortex them in a tube containing 30 mL of tryptic soy broth (TSB) and incubate for 17+/−1h at 37° C.+/−1° C. Quantify by plate count in TSA (incubated for 48h+/−1h at 37° C.+/−1° C.). Use the broth culture suspension within seven (7) days after the incubation period. Vortex and take 0.2 mL from the broth culture and dilute in appropriate volume of 0.85% NaCl to normalize the strain at 3-5×10^5 CFU/mL Using a micropipette, add 100 μL of TSB in a 96-well microtiter plate format. […] (both samples are the same) Using a micropipette take 100 μL of the sample from column 2 and dilute it in column 3 performing a 1:1 dilution with the diluent already present in the wells, proceeding with a serial dilution up to column 9. Discard the remaining 100 μL. […] Dispense 100 μL of inoculum using a micropipette into each well in columns 2 to 10. Columns 1 and 11 are the sample sterility test and negative test control columns, respectively. No growth should be observed in these columns. Column 10 is the positive test control and growth should be observed. […] Incubate the microwell plate for 24h+/−1h at 37° C.+/−1° C. The minimum inhibitory concentration (MIC) is determined by visually checking the wells for growth. […]
substance,measurement,value
C12-16 alkyldimethylbenzylammonium chloride [BKC],BKC MIC in ppm alone,0.3-0.8 ppm
